Key:
Lolium rigidum [1] = assay: Herbicidal activity against Lolium rigidum accession A15 assessed as emergence rate applied at 4 times pre-emergence recommended rate relative to untreated control; type: functional
[2] = target: T1, Acetolactate synthase (Lolium rigidum) (UniProt A7XBP7); assay: Resistance index, ratio of I50 for acetolactate synthase Ala-197/Ala-197 mutant in Lolium rigidum accession A20 leaves extracts to I50 for acetolactate synthase in Lolium rigidum accession A01 leaves extracts
T1 sequence (whole entry): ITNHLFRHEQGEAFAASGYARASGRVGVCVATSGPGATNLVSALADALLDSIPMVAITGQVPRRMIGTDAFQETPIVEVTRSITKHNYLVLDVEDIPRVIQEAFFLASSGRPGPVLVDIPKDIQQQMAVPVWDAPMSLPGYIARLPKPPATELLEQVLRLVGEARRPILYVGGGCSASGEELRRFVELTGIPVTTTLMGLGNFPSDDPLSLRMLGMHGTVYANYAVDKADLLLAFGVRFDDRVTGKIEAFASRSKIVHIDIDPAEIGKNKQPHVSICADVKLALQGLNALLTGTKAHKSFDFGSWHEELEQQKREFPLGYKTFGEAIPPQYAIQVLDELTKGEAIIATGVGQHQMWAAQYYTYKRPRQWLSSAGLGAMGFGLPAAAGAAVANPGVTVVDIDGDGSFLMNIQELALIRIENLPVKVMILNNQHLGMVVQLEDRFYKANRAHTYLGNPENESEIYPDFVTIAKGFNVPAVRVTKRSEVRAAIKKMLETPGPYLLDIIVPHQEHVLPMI

[3] = target: T1, Acetolactate synthase (Lolium rigidum); assay: Resistance index, ratio of I50 for acetolactate synthase Pro-197/Pro-197 mutant in Lolium rigidum accession A11 leaves extracts to I50 for acetolactate synthase in Lolium rigidum accession A01 leaves extracts
Lolium rigidum [4] = assay: Herbicidal activity against Lolium rigidum accession A06 assessed as fresh weight reduction applied at 1 times pre-emergence recommended rate applied in pots where terbufos had been incorporated into the soil relative to untreated control; type: functional; set-up: scale not given: the % may be the effect or the level left
Lolium rigidum [5] = assay: Herbicidal activity against Lolium rigidum accession A15 assessed as fresh weight reduction applied at 1 times pre-emergence recommended rate applied in pots where terbufos had been incorporated into the soil relative to untreated control; type: functional; set-up: scale not given: the % may be the effect or the level left
Lolium rigidum [6] = assay: Herbicidal activity against Lolium rigidum accession A06 assessed as emergence rate applied at 4 times pre-emergence recommended rate relative to untreated control; type: functional
Acetolactate synthase [7] = target: T2, Acetolactate synthase (Lolium rigidum, UniProt A7XBP7); assay: Inhibition of acetolactate synthase Ala-197/Ala-197 mutant in Lolium rigidum accession A19 leaves extracts by acetolactate production assay; details: read-out: I50
Lolium rigidum [8] = assay: Herbicidal activity against Lolium rigidum accession A10 assessed as fresh weight reduction applied at 4 times pre-emergence recommended rate relative to untreated control; type: functional; set-up: scale not given: the % may be the effect or the level left
Lolium rigidum [9] = assay: Herbicidal activity against Lolium rigidum accession A09 assessed as fresh weight reduction applied at 1 times pre-emergence recommended rate applied in pots where terbufos had been incorporated into the soil relative to untreated control; type: functional; set-up: scale not given: the % may be the effect or the level left
Lolium rigidum [10] = assay: Herbicidal activity against Lolium rigidum accession A07 assessed as fresh weight reduction applied at 1 times pre-emergence recommended rate applied in pots where terbufos had been incorporated into the soil relative to untreated control; type: functional; set-up: scale not given: the % may be the effect or the level left
[11] = target: T1, Acetolactate synthase (Lolium rigidum); assay: Resistance index, ratio of I50 for acetolactate synthase Ala-197/Ala-197 mutant in Lolium rigidum accession A16 leaves extracts to I50 for acetolactate synthase in Lolium rigidum accession A01 leaves extracts
Lolium rigidum [12] = assay: Herbicidal activity against Lolium rigidum accession A11 assessed as fresh weight reduction applied at 4 times pre-emergence recommended rate relative to untreated control; type: functional; set-up: scale not given: the % may be the effect or the level left
[13] = target: T1, Acetolactate synthase (Lolium rigidum); assay: Resistance index, ratio of I50 for acetolactate synthase Ala-197/Ala-197 mutant in Lolium rigidum accession A05 leaves extracts to I50 for acetolactate synthase in Lolium rigidum accession A01 leaves extracts
Acetolactate synthase [14] = target: T2, Acetolactate synthase; assay: Inhibition of acetolactate synthase Ala-197/Ala-197 mutant in Lolium rigidum accession A16 leaves extracts by acetolactate production assay; details: read-out: I50
Lolium rigidum [15] = assay: Herbicidal activity against Lolium rigidum accession A06 assessed as emergence rate applied at 1 times pre-emergence recommended rate applied in pots where terbufos had been incorporated into the soil relative to untreated control; type: functional
Lolium rigidum [16] = assay: Herbicidal activity against Lolium rigidum accession A12 assessed as fresh weight reduction applied at 4 times pre-emergence recommended rate relative to untreated control; type: functional; set-up: scale not given: the % may be the effect or the level left
Lolium rigidum [17] = assay: Herbicidal activity against Lolium rigidum accession A13 assessed as fresh weight reduction applied at 1 times pre-emergence recommended rate relative to untreated control; type: functional; set-up: scale not given: the % may be the effect or the level left
Lolium rigidum [18] = assay: Herbicidal activity against Lolium rigidum accession A09 assessed as fresh weight reduction applied at 4 times pre-emergence recommended rate relative to untreated control; type: functional; set-up: scale not given: the % may be the effect or the level left
Lolium rigidum [19] = assay: Herbicidal activity against Lolium rigidum accession A10 assessed as emergence rate applied at 4 times pre-emergence recommended rate relative to untreated control; type: functional
Lolium rigidum [20] = assay: Herbicidal activity against Lolium rigidum accession A10 assessed as emergence rate applied at 1 times pre-emergence recommended rate relative to untreated control; type: functional
Lolium rigidum [21] = assay: Herbicidal activity against Lolium rigidum accession A03 assessed as emergence rate applied at 1 times pre-emergence recommended rate applied in pots where terbufos had been incorporated into the soil relative to untreated control; type: functional
[22] = target: T1, Acetolactate synthase (Lolium rigidum); assay: Resistance index, ratio of I50 for acetolactate synthase Pro-197/Pro-197 mutant in Lolium rigidum accession A09 leaves extracts to I50 for acetolactate synthase in Lolium rigidum accession A01 leaves extracts
Lolium rigidum [23] = assay: Herbicidal activity against Lolium rigidum accession A08 assessed as fresh weight reduction applied at 1 times pre-emergence recommended rate applied in pots where terbufos had been incorporated into the soil relative to untreated control; type: functional; set-up: scale not given: the % may be the effect or the level left
Acetolactate synthase [24] = target: T2, Acetolactate synthase; assay: Inhibition of acetolactate synthase Leu-197/Leu-197 mutant in Lolium rigidum accession A08 leaves extracts by acetolactate production assay; details: read-out: I50
Lolium rigidum [25] = assay: Herbicidal activity against Lolium rigidum accession A06 assessed as fresh weight reduction applied at 4 times pre-emergence recommended rate relative to untreated control; type: functional; set-up: scale not given: the % may be the effect or the level left
Lolium rigidum [26] = assay: Herbicidal activity against Lolium rigidum accession A02 assessed as emergence rate applied at 4 times pre-emergence recommended rate relative to untreated control; type: functional
Lolium rigidum [27] = assay: Herbicidal activity against Lolium rigidum accession A11 assessed as emergence rate applied at 1 times pre-emergence recommended rate applied in pots where terbufos had been incorporated into the soil relative to untreated control; type: functional
Lolium rigidum [28] = assay: Herbicidal activity against Lolium rigidum accession A15 assessed as emergence rate applied at 1 times pre-emergence recommended rate relative to untreated control; type: functional
Lolium rigidum [29] = assay: Herbicidal activity against Lolium rigidum accession A01 assessed as fresh weight reduction applied at 4 times pre-emergence recommended rate relative to untreated control; type: functional; set-up: scale not given: the % may be the effect or the level left
[30] = target: T1, Acetolactate synthase (Lolium rigidum); assay: Resistance index, ratio of I50 for acetolactate synthase Ser-197/Ser-197 mutant in Lolium rigidum accession A21 leaves extracts to I50 for acetolactate synthase in Lolium rigidum accession A01 leaves extracts
Lolium rigidum [31] = assay: Herbicidal activity against Lolium rigidum accession A11 assessed as fresh weight reduction applied at 1 times pre-emergence recommended rate applied in pots where terbufos had been incorporated into the soil relative to untreated control; type: functional; set-up: scale not given: the % may be the effect or the level left
Lolium rigidum [32] = assay: Herbicidal activity against Lolium rigidum accession A01 assessed as emergence rate applied at 1 times pre-emergence recommended rate applied in pots where terbufos had been incorporated into the soil relative to untreated control; type: functional
Lolium rigidum [33] = assay: Herbicidal activity against Lolium rigidum accession A03 assessed as fresh weight reduction applied at 1 times pre-emergence recommended rate applied in pots where terbufos had been incorporated into the soil relative to untreated control; type: functional; set-up: scale not given: the % may be the effect or the level left

Q: What does the source list for `COc1nc(C)nc(NC(=O)NS(=O)(=O)c2ccccc2Cl)n1` [CHLORSULFURON]?
A: Activity (Lolium rigidum [1]): 2%; Ratio [2]: 36; Ratio [3]: 1; Activity (Lolium rigidum [4]): 0%; Activity (Lolium rigidum [5]): 97%; Activity (Lolium rigidum [6]): 84%; IC50 (Acetolactate synthase [7]): 18.6 µM; Activity (Lolium rigidum [8]): 100%; Activity (Lolium rigidum [9]): 94%; Activity (Lolium rigidum [10]): 1%; Ratio [11]: 257; Activity (Lolium rigidum [12]): 90%; Ratio [13]: 163; IC50 (Acetolactate synthase [14]): 7.71 µM; Activity (Lolium rigidum [15]): 92%; Activity (Lolium rigidum [16]): 99%; Activity (Lolium rigidum [17]): 98%; Activity (Lolium rigidum [18]): 95%; Activity (Lolium rigidum [19]): 0%; Activity (Lolium rigidum [20]): 68%; Activity (Lolium rigidum [21]): 1%; Ratio [22]: 1; Activity (Lolium rigidum [23]): 5%; IC50 (Acetolactate synthase [24]): 16.9 µM; Activity (Lolium rigidum [25]): 11%; Activity (Lolium rigidum [26]): 1%; Activity (Lolium rigidum [27]): 2%; Activity (Lolium rigidum [28]): 2%; Activity (Lolium rigidum [29]): 99%; Ratio [30]: 53; Activity (Lolium rigidum [31]): 97%; Activity (Lolium rigidum [32]): 1%; Activity (Lolium rigidum [33]): 99%
